Data as given in US9682953B2, “Amide compounds, compositions and applications thereof” (Advinus Therapeutics Limited, priority 2011, dated 2017).
Like-named read-outs stand apart in the source and are kept apart here.

Assays:
[1] = molecular target: human Fatty Acid Amide Hydrolase (FAAH) (Homo sapiens (Human), UniProt O00519); test: biochemical; conditions: for inhibition at 0.1 µM: read-out: hFAAH % inhibition at 100 nM, 100 nM (tier I)
[2] = molecular target: rat Fatty Acid Amide Hydrolase (FAAH) (Rattus norvegicus (Rat), UniProt P97612); test: FAAH in vitro fluorescence assay (AAMCA hydrolysis), rat enzyme; format: biochemical; conditions: for inhibition at 0.1 µM: read-out: rFAAH % inhibition at 100 nM, 100 nM (tier I)
Description: Material and Reagents: All reagents were purchased from Sigma-Aldrich unless specified. […] Chaperone protein groEL-groES in pGRO7 plasmid (Takara Bio Inc, Japan) was co-expressed with Fatty Acid Amide Hydrolase (FAAH) to improve solubility of the protein expressed in E coli. […] Briefly, the bacterial cultures in Luria Broth (2 L) were induced with arabinose (2 mM) and Isopropyl (β-D-1-thiogalactopyranoside, IPTG (1 mM), for 20 h at room temperature. The cultures were centrifuged at 1200×g for 10 min and the cell pellet was resuspended in 100 mL buffer containing of 20 mM NaPi (pH 7.4), 100 mM NaCl, Benzonase (500u), Aprotinin (1 μg/mL) and Leupeptin (1 μg/mL). Cells were lyzed by sonication (Amp 20%, Pulse 15 s×15, on ice) and the cell debris removed by centrifugation at 5000×g for 20 min. The supernatant was enriched via ultracentrifugation at 100,000×g for 1 h and the cell pellet was resuspended in 16 mL buffer containing 20 mM NaPi (pH 7.8), 500 mM NaCl, 1% Triton X-100. The resuspended cell extract was subjected to ultra-centrifugation at 100,000×g for 1 h and the enriched supernatant was used in the in vitro assay. All protein extraction steps were carried out on ice or at 4° C.
The assay was carried out in 200 μL volume in a 96-well black polystyrene plate (Greiner Bio-one, Germany). Each reaction consisted of human Fatty Acid Amide Hydrolase (FAAH) protein and 10 μM AAMCA in assay buffer containing 50 mM HEPES, 1 mM EDTA and 0.1% BSA, pH 7.4. The reaction was incubated with 2 μL of varying concentrations of inhibitor in DMSO (final concentration of DMSO 1%) with shaking for 1 min and monitored for increase in fluorescence in kinetic mode for 50 min. […] Rate of reaction as a function of the concentration of the inhibitor was used to determine the IC50 of the inhibitors. Data was analyzed using GraphPad Prism 5 (GraphPad Software Inc., San Diego, Calif.). The activity of the compounds for rat Fatty Acid Amide Hydrolase (FAAH) was evaluated as described above with rat Fatty Acid Amide Hydrolase (FAAH) protein and 10 μM AAMCA substrate.

[3] = human FAAH, read-out: hFAAH IC50

Chain of human Fatty Acid Amide Hydrolase (FAAH) (O00519 30-579): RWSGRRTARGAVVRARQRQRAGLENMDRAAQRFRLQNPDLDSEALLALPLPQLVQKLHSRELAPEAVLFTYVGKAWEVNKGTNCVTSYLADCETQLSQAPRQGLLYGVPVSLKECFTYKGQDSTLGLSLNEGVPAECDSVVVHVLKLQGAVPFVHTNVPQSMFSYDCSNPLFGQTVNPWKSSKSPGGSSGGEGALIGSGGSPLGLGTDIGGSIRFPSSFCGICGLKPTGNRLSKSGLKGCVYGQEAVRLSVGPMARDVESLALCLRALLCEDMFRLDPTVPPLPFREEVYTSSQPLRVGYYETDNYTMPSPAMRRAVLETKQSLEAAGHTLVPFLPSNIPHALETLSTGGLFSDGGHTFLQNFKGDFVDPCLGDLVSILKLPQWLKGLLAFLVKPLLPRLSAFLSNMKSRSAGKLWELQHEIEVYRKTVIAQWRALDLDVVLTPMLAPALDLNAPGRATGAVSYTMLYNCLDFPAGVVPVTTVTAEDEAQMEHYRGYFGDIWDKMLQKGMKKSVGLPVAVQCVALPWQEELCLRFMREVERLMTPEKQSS
Chain of rat Fatty Acid Amide Hydrolase (FAAH) (P97612 30-579): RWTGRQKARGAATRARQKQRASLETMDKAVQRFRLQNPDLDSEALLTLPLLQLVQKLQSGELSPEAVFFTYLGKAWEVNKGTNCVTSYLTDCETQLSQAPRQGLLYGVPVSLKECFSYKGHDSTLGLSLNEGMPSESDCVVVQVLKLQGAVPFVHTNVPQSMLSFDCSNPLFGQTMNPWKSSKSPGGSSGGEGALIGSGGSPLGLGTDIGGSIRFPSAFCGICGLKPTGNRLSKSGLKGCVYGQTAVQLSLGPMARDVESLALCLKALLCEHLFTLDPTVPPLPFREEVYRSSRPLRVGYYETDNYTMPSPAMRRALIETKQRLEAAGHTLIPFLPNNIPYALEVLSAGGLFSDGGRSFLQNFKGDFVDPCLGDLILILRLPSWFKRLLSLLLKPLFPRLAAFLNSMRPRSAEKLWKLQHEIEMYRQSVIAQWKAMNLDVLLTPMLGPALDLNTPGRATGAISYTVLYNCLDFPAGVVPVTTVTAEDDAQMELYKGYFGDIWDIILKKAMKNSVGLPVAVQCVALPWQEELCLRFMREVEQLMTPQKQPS

Structure (SMILES)	IC50 [1, 3] [nM]	IC50 ([2]; rat FAAH, read-out: rFAAH IC50) [nM]	inhibition at 0.1 µM ([2]; rat FAAH) [%]	also measured
O=C(NC1CCC(=Cc2cccc(Oc3ccc(C(F)(F)F)cn3)c2)CC1)c1cncc(-n2cccn2)c1 (stereo not drawn) [Example 2.B-7, 5-Pyrazol-1-yl-N-[4-[[3-[[5-(trifluoromethyl)-2-pyridyl]oxy]phenyl]methylene]cyclohexyl]pyridine-3-carboxamide]	6	85		
O=C(NC1CCC(=Cc2cccc(Oc3ccc(C(F)(F)F)cn3)c2)CC1)c1ccc(C(F)(F)F)nc1 (stereo not drawn) [Example 2.A-6, 6-(Trifluoromethyl)-N-[4-[[3-[[5-(trifluoromethyl)-2-pyridyl]oxy]phenyl]methylene]cyclohexyl]pyridine-3-carboxamide]	102		37	
O=C(NC1CCC(=Cc2cccc(Oc3ccc(C(F)(F)F)cn3)c2)CC1)c1ccc(N2CCCC2)nc1 (stereo not drawn) [Example 5.A-2, 6-Pyrrolidin-1-yl-N-[4-[[3-[[5-(trifluoromethyl)-2-pyridyl]oxy]phenyl]methylene]cyclohexyl]pyridine-3-carboxamide]		28		inhibition at 0.1 µM ([1]; human FAAH): 54%
Cc1nc(Oc2cccc(C=C3CCC(NC(=O)c4ccc(N)nc4)CC3)c2)ccc1C(F)(F)F (stereo not drawn) [Example 2.E-17, 6-Amino-N-[4-[[3-[[6-methyl-5-(trifluoromethyl)-2-pyridyl]oxy]phenyl]methylene]cyclohexyl]pyridine-3-carboxamide]		27		IC50 ([1]; read-out: hFAAH IC50): 3 nM
Nc1cc(C(=O)NC2CCC(=Cc3cccc(Oc4ccc(C(F)(F)F)cn4)c3)CC2)cnc1Cl (stereo not drawn) [Example 10.1, 5-Amino-6-chloro-N-[4-[[3-[[5-(trifluoromethyl)-2-pyridyl]oxy]-phenyl]methylene]cyclohexyl]pyridine-3-carboxamide]				IC50 ([1]; hFAAH IC50): 1 nM; IC50 [2]: 6 nM
O=C(NC1CCC(=Cc2cccc(Oc3ccc(C(F)(F)F)cn3)c2)CC1)c1ccc(C2CC2)nc1 (stereo not drawn) [Example 2.A-42, 6-Cyclopropyl-N-[4-[[3-[[5-(trifluoromethyl)-2-pyridyl]oxy]phenyl]methylene]cyclohexyl]pyridine-3-carboxamide]	13	14		
N#Cc1ccc(C(=O)NC2CCC(=Cc3cccc(Oc4ccc(C(F)(F)F)cn4)c3)CC2)cn1 (stereo not drawn) [Example 2.A-27, 6-Cyano-N-[4-[[3-[[5-(trifluoromethyl)-2-pyridyl]oxy]phenyl]methylene]cyclohexyl]pyridine-3-carboxamide]	55		27	
O=C(NC1CCC(=Cc2cccc(Oc3ccc(C(F)(F)F)cn3)c2)CC1)c1cnc2[nH]ccc2c1 [Example 2.D-5, N-[4-[[3-[[5-(Trifluoromethyl)-2-pyridyl]oxy]phenyl]methylene]cyclohexyl]-1H-pyrrolo[2,3-b]pyridine-5-carboxamide]		16		IC50 ([1]; read-out: hFAAH IC50): 2 nM
O=C(NC1CCC(=Cc2cccc(Oc3ccc(C(F)(F)F)cn3)c2)CC1)c1ccc(-c2cn[nH]c2)nc1 (stereo not drawn) [Example 2.B-5, 6-(1H-Pyrazol-4-yl)-N-[4-[[3-[[5-(trifluoromethyl)-2-pyridyl]oxy]phenyl]methylene]cyclohexyl]pyridine-3-carboxamide]	2	9		
CCc1nc(Oc2cccc(C=C3CCC(NC(=O)c4ccc(N)nc4)CC3)c2)ccc1C(F)(F)F (stereo not drawn) [Example 2.E-24, 6-Amino-N-[4-[[3-[[6-ethyl-5-(trifluoromethyl)-2-pyridyl]oxy]phenyl]methylene]cyclohexyl]pyridine-3-carboxamide]	34		47	
O=C(NC1CCC(=Cc2cccc(Oc3ccc(C(F)(F)F)cn3)c2)CC1)c1ccc(-n2nccn2)nc1 (stereo not drawn) [Example 2.B-15, 6-(Triazol-2-yl)-N-[4-[[3-[[5-(trifluoromethyl)-2-pyridyl]oxy]phenyl]methylene]cyclohexyl]pyridine-3-carboxamide]	3	9		
CCc1ccc(C(=O)NC2CCC(=Cc3cccc(Oc4ccc(C(F)(F)F)cn4)c3)CC2)cn1 (stereo not drawn) [Example 2.A-43, 6-Ethyl-N-[4-[[3-[[5-(trifluoromethyl)-2-pyridyl]oxy]phenyl]methylene]cyclohexyl]pyridine-3-carboxamide]	4	18		
O=C(NC1CCC(=Cc2cccc(Oc3ccc(C(F)(F)F)cn3)c2)CC1)c1ccc(-c2nnn[nH]2)nc1 (stereo not drawn) [Example 11.1, 6-(1H-Tetrazol-5-yl)-N-[4-[[3-[[5-(trifluoromethyl)-2-pyridyl]oxy]-phenyl]methylene]cyclohexyl]pyridine-3-carboxamide]			50	IC50 ([1]; read-out: hFAAH IC50): 12 nM
Cc1ccc(C(=O)NC2CCC(=Cc3cccc(Oc4ccc(C(F)(F)F)cn4)c3)CC2)cn1 (stereo not drawn) [Example 2.2, 6-Methyl-N-[4-[[3-[[5-(trifluoromethyl)-2-pyridyl]oxy]phenyl]-methylene]cyclohexyl]pyridine-3-carboxamide]		28		IC50 ([1]; read-out: hFAAH IC50): 5 nM
O=C(NC1CCC(=Cc2cccc(Oc3ccc(C(F)(F)F)cn3)c2)CC1)c1ncccn1 (stereo not drawn) [Example 2.A-16, N-[4-[[3-[[5-(Trifluoromethyl)-2-pyridyl]oxy]phenyl]methylene]cyclohexyl]pyrimidine-2-carboxamide]	15		38	
CN(C)c1ccc(C(=O)NC2CCC(=Cc3cccc(Oc4ccc(C(F)(F)F)cn4)c3)CC2)cn1 (stereo not drawn) [Example 2.A-24, 6-(Dimethylamino)-N-[4-[[3-[[5-(trifluoromethyl)-2-pyridyl]oxy]phenyl]methylene]cyclohexyl]pyridine-3-carboxamide]			31	IC50 ([1]; read-out: hFAAH IC50): 9 nM
Nc1ncc(C(=O)NC2CCC(=Cc3cccc(Oc4ccc(C(F)(F)F)cn4)c3)CC2)cc1Cl (stereo not drawn) [Example 4.A-3, 6-Amino-5-chloro-N-[4-[[3-[[5-(trifluoromethyl)-2-pyridyl]oxy]phenyl]methylene]cyclohexyl]pyridine-3-carboxamide]				IC50 ([1]; hFAAH IC50): 3 nM; IC50 [2]: 16 nM
Cc1n[nH]c(C)c1-c1ccc(C(=O)NC2CCC(=Cc3cccc(Oc4ccc(C(F)(F)F)cn4)c3)CC2)cn1 (stereo not drawn) [Example 2.B-11, 6-(3,5-Dimethyl-1H-pyrazol-4-yl)-N-[4-[[3-[[5-(trifluoromethyl)-2-pyridyl]oxy]phenyl]methylene]cyclohexyl]pyridine-3-carboxamide]	17	52		
O=C(NC1CCC(=Cc2cccc(Oc3ccc(C(F)(F)F)cn3)c2)CC1)c1cc[nH]n1 (stereo not drawn) [Example 2.A-1, N-[4-[[3-[[5-(Trifluoromethyl)-2-pyridyl]oxy]phenyl]methylene]cyclohexyl]-1H-pyrazole-3-carboxamide]	10	418		
Nc1ccc(C(=O)NC2CCC(=Cc3cccc(Oc4ccc(C(F)(F)F)cn4)c3)CC2)cn1 (stereo not drawn) [Example 2.C-1, 6-Amino-N-[4-[[3-[[5-(trifluoromethyl)-2-pyridyl]oxy]phenyl]methylene]cyclohexyl]pyridine-3-carboxamide]		31		IC50 ([1]; read-out: hFAAH IC50): 5 nM
Nc1ccc(C(=O)NC2CCC(=Cc3cccc(Oc4ccc(C(F)(F)F)c(C5CC5)n4)c3)CC2)cn1 (stereo not drawn) [Example 2.E-19, 6-Amino-N-[4-[[3-[[6-cyclopropyl-5-(trifluoromethyl)-2-pyridyl]oxy]phenyl]methylene]cyclohexyl]pyridine-3-carboxamide]			40	inhibition at 0.1 µM ([1]; human FAAH): 40%
Cc1cc(C(=O)NC2CCC(=Cc3cccc(Oc4ccc(C(F)(F)F)c(C)n4)c3)CC2)cnc1N (stereo not drawn) [Example 2.E-23, 6-Amino-5-methyl-N-[4-[[3-[[6-methyl-5-(trifluoromethyl)-2-pyridyl]oxy]phenyl]methylene]cyclohexyl]pyridine-3-carboxamide]	12	65		
Cc1cc(C(=O)NC2CCC(=Cc3cccc(Oc4ccc(C(F)(F)F)cn4)c3)CC2)cnc1N (single isomer, unassigned; (-)) [Example 20.A-6, (−)-6-Amino-5-methyl-N-[4-[[3-[[5-(trifluoromethyl)-2-pyridyl]oxy]phenyl]methylene]cyclohexyl]pyridine-3-carboxamide]	1	10		
O=C(O)Cn1cc(-c2ccc(C(=O)NC3CCC(=Cc4cccc(Oc5ccc(C(F)(F)F)cn5)c4)CC3)cn2)cn1 (stereo not drawn) [Example 8.A-1, 2-[4-[5-[[4-[[3-[[5-(Trifluoromethyl)-2-pyridyl]oxy]phenyl]methylene]cyclohexyl]carbamoyl]-2-pyridyl]pyrazol-1-yl]acetic acid]			15	inhibition at 0.1 µM ([1]; human FAAH): 72%
